As usually defined, the IC50 is the point on the concentration scale where inhibition reaches its midpoint. The inhibition is the percentage by which the read-out fell short of the control. In general, AUC refers to concentration integrated over time. The low end stands for low exposure, the high end for high exposure. For orientation: clearance means the rate of elimination divided by the concentration. Low values mean a low capacity for elimination, high ones a high capacity for elimination. As usually defined, the half-life is how long it takes for the measured level to halve.

Data set [1] deals with T1, human soluble ENPP1 (Homo sapiens, UniProt P22413).
T1 construct: 20 ng of human soluble ENPP1
T1 sequence (P22413 103-925 limits assumed): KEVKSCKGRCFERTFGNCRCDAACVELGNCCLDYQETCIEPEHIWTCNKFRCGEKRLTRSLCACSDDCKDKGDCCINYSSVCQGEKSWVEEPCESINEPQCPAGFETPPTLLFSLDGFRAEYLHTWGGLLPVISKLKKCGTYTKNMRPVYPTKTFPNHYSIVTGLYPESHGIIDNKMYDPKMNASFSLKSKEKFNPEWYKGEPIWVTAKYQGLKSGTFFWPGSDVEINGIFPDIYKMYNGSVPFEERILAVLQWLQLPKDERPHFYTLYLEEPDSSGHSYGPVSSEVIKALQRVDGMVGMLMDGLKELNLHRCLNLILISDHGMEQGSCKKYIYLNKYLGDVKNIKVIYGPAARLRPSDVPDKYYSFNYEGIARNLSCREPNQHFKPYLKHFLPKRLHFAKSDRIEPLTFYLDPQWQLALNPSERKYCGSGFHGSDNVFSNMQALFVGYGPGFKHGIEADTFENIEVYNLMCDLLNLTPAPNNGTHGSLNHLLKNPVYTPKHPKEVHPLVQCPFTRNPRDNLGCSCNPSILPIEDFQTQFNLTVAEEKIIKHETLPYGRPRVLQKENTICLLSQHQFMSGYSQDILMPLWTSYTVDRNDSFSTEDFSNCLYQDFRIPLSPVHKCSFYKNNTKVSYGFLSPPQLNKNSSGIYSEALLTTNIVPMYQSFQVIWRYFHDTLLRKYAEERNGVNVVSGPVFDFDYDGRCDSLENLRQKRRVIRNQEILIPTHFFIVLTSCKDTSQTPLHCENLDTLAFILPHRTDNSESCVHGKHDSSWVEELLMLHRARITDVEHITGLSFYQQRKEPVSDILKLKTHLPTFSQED
Kind of data set: ENPP1 activity assay using p-Nitrophenyl-5′-TMP as a substrate. Type of data set: biochemical. The procedure, abridged:
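Human soluble ENPP1 (20 ng) was preincubated with inhibitor for 30 min at room temperature. TMP-pNP was then added as a 2 mM […] solution and incubated 1 h at RT, with p-nitrophenol formation read by OD. IC50 came from four-parameter fits of % inhibition relative to no-inhibitor and blank controls.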

In data set [2] the target is T1, human soluble ENPP1. The data set is described as follows: ENPP1 activity assay using p-Nitrophenyl-5′-AMP as a substrate. The data set is classed as biochemical. In short, it runs like this: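 Human soluble ENPP1 (35 ng) preincubated with inhibitor 30 min at RT, then p-nitrophenyl-5′-AMP added (3 mM solution, 2× final) and incubated 1 h at RT. p-Nitrophenolate release read at OD 405 nm; % inhibition vs no-inhibitor and blank controls, IC50 from four-parameter fit.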

For a further data set, the target named is T2, ENPP-1, MDA-MB-231 cells (Homo sapiens, UniProt P22413).
T2 sequence (P22413 1-925): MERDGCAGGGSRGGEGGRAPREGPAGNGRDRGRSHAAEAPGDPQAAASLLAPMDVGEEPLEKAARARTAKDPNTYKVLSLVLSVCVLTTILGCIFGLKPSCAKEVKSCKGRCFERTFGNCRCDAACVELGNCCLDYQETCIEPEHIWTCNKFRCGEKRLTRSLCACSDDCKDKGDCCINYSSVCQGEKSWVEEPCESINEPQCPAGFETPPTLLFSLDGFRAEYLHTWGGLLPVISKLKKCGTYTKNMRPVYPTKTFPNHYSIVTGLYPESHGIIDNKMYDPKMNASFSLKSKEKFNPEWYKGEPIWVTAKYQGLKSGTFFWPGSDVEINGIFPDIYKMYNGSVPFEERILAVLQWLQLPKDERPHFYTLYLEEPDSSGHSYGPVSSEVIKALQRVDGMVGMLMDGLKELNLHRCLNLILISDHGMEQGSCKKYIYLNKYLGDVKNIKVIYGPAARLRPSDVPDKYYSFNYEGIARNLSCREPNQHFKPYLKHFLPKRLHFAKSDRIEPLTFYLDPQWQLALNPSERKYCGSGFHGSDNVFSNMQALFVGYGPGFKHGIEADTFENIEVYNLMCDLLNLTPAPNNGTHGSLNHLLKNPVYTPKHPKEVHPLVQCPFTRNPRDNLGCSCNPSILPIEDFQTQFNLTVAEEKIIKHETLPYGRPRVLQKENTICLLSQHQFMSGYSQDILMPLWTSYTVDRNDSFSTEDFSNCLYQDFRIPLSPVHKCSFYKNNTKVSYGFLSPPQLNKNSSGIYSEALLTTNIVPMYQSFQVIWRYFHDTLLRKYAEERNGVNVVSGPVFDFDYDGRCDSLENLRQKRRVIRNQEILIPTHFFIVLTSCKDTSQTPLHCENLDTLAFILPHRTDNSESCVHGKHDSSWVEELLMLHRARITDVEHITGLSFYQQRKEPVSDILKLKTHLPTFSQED
The data set is described as follows: cell-based. The settings on record: for inhibition at 20 µM: MDA-MB-231, read-out: % Inhibition (at 20 μM).

The nature of another data set: Pharmacokinetics in mice. The data set is classed as in vivo. The settings on record: mouse, plasma, male CD-1 mice, 1 mg/kg, iv; for Vd: read-out: Vdss. Here is the method: A dosing solution of test sample was prepared at 1.0 mg/mL in 5% DMSO/40% PEG400/55% water and administered to male CD-1 mice (4-6 weeks old, 20-30 grams, 3 animals each group) via intravenous (IV) bolus at 1 mg/kg and by oral gavage (PO) at 5 mg/kg. Blood samples (˜0.03 mL each time point) were collected via the jugular vein into tubes containing sodium heparin as the anticoagulant at 0.033, 0.083, 0.25, 0.5, 1, 2, 4, 8 and 24 hours post dose for IV administration and 0.083, 0.25, 0.5, 1, 2, 4, 8 and 24 hours post dose for PO administration. The blood samples were then centrifuged for 5 minutes in a centrifuge refrigerated at 4° C. The resultant plasma samples were analyzed using LC/MS/MS to determine concentrations of test sample. Non-compartmental model with WinNonlin (Phoenix™, version 8.0) software was used to calculate pharmacokinetic (PK) parameters.

At human soluble ENPP1 [1], `COc1ccc2c(ncc3nnn(Cc4ccc(S(N)(=O)=O)c(F)c4)c32)n1` [Compound 120, 2-fluoro-4-((7-methoxy-1H-[1,2,3]triazolo[4,5-c][1,8]naphthyridin-1-yl)methyl)benzenesulfonamide] had an IC50 of 1.78 nM. At human soluble ENPP1 [2], this compound displayed an IC50 of 4.4 nM. Further, on ENPP-1, MDA-MB-231 cells, the IC50 came to 1100 nM and the inhibition at 20 µM stood at 79%. In the data set “Pharmacokinetics in mice”, the AUC was 260 ng·h/mL, the clearance was 65 mL/min/kg, the half-life was 2 h and the Vd was determined as 8.9 L/kg.

Regarding `COc1ccc2c(ncc3ncn([C@H](C)c4ccc(S(N)(=O)=O)cn4)c32)n1` [Compound 60, (R)-6-(1-(7-methoxy-1H-imidazo[4,5-c][1,8]naphthyridin-1-yl)ethyl)pyridine-3-sulfonamide], 0.31 nM corresponded to half-maximal inhibition against human soluble ENPP1 [1] (IC50). The IC50 on human soluble ENPP1 [2] was determined as 1.51 nM. Besides, on ENPP-1, MDA-MB-231 cells, the IC50 turned out to be 490 nM and the inhibition at 20 µM worked out at 83%. Moreover, in the data set “Pharmacokinetics in mice”, the AUC is 215 ng·h/mL, the clearance is 78 mL/min/kg, the half-life is 2.5 h and the Vd stood at 11 L/kg.

On human soluble ENPP1 [1], `COc1ccc2c(ncc3ncn(Cc4ccc(S(N)(=O)=O)c(F)c4)c32)n1` [Compound 61, 2-fluoro-4-((7-methoxy-1H-imidazo[4,5-c][1,8]naphthyridin-1-yl)methyl)benzenesulfonamide] came in with an IC50 of 0.53 nM. At human soluble ENPP1 [2], this compound gave an IC50 of 1.9 nM. Also, at ENPP-1, MDA-MB-231 cells, 780 nM corresponded to half-maximal inhibition (IC50) and the inhibition at 20 µM was found to be 80%. In “Pharmacokinetics in mice”, the AUC is 271 ng·h/mL, the clearance stood at 62 mL/min/kg, the half-life is 1.4 h and the Vd came to 4.5 L/kg.

In turn, `COc1ccc2c(ncc3nc(C)n(Cc4cc(F)c(S(N)(=O)=O)cc4F)c32)n1` [Compound 70, 2,5-difluoro-4-((7-methoxy-2-methyl-1H-imidazo[4,5-c][1,8]naphthyridin-1-yl)methyl)benzenesulfonamide] yielded an IC50 on human soluble ENPP1 [1] of 0.64 nM. The compound also yielded an IC50 on human soluble ENPP1 [2] of 1.2 nM. At ENPP-1, MDA-MB-231 cells, the IC50 was 290 nM and the inhibition at 20 µM stood at 85%. For the same compound, in “Pharmacokinetics in mice”, the AUC is 668 ng·h/mL, the clearance came to 26 mL/min/kg, the half-life is 2.6 h and the Vd was found to be 4.3 L/kg.

Take `COc1ccc2c(ncc3cnn(Cc4ccc(S(N)(=O)=O)c(F)c4)c32)n1` [Compound 122a, 2-fluoro-4-((7-methoxy-1H-pyrazolo[4,3-c][1,8]naphthyridin-1-yl)methyl)benzenesulfonamide]: the 50% inhibitory concentration (IC50) on human soluble ENPP1 [1] was 1.6 nM. Moreover, 4.3 nM corresponded to half-maximal inhibition on human soluble ENPP1 [2] (IC50). Also, at ENPP-1, MDA-MB-231 cells, it took 1700 nM to reach half-maximal inhibition (IC50) and the inhibition at 20 µM was determined as 74%. For the same compound, in the data set “Pharmacokinetics in mice”, the AUC stood at 170 ng·h/mL, the clearance was found to be 100 mL/min/kg, the half-life was 0.33 h and the Vd is 2 L/kg.

Consider `COc1ccc2c(ncc3nc(CN4CCOCC4)n(Cc4ccc(S(N)(=O)=O)c(F)c4)c32)n1` [Compound 80, 2-fluoro-4-((7-methoxy-2-(morpholinomethyl)-1H-imidazo[4,5-c][1,8]naphthyridin-1-yl)methyl)benzenesulfonamide], for which the concentration for half-maximal inhibition (IC50) at human soluble ENPP1 [1] came to 1.8 nM. On human soluble ENPP1 [2], this compound had an IC50 of 6.4 nM. Further, at ENPP-1, MDA-MB-231 cells, half-maximal inhibition (IC50) required 1800 nM and the inhibition at 20 µM worked out at 75%. Moreover, in the data set “Pharmacokinetics in mice”, the AUC was 158 ng·h/mL, the clearance stood at 107 mL/min/kg, the half-life was 0.13 h and the Vd stood at 1 L/kg.

In turn, `COc1ccc2c(ncc3ncn(Cc4ccc(S(N)(=O)=O)cc4F)c32)n1` [Compound 62, 3-fluoro-4-((7-methoxy-1H-imidazo[4,5-c][1,8]naphthyridin-1-yl)methyl)benzenesulfonamide] displayed an IC50 against human soluble ENPP1 [1] of 0.1 nM. At human soluble ENPP1 [2], this compound gave an IC50 of 1.5 nM. Besides, on ENPP-1, MDA-MB-231 cells, the IC50 amounted to 45 nM and the inhibition at 20 µM is 89%. Moreover, in the data set “Pharmacokinetics in mice”, the AUC is 163 ng·h/mL, the clearance came out at 105 mL/min/kg, the half-life is 4.9 h and the Vd amounted to 39 L/kg.

The compound `COc1ccc2c(ncc3ncn(CC4CN(S(N)(=O)=O)C4)c32)n1` [Compound 52, 3-((7-methoxy-1H-imidazo[4,5-c][1,8]naphthyridin-1-yl)methyl)azetidine-1-sulfonamide] came in with an IC50 against human soluble ENPP1 [1] of 0.54 nM. The same compound yielded an IC50 against human soluble ENPP1 [2] of 2.2 nM. Besides, at ENPP-1, MDA-MB-231 cells, the IC50 was 1300 nM and the inhibition at 20 µM worked out at 79%. In “Pharmacokinetics in mice”, the AUC came to 179 ng·h/mL, the clearance amounted to 103 mL/min/kg, the half-life was 0.35 h and the Vd was determined as 1.1 L/kg.

On to `COc1ccc2c(ncc3nc(C)n(Cc4ccc(S(N)(=O)=O)nc4)c32)n1` [Compound 73, 5-((7-methoxy-2-methyl-1H-imidazo[4,5-c][1,8]naphthyridin-1-yl)methyl)pyridine-2-sulfonamide], for which the IC50 against human soluble ENPP1 [1] worked out at 0.36 nM. Moreover, the IC50 on human soluble ENPP1 [2] turned out to be 0.96 nM. Further, on ENPP-1, MDA-MB-231 cells, inhibition was half-maximal at 270 nM (IC50) and the inhibition at 20 µM amounted to 81%. In the data set “Pharmacokinetics in mice”, the AUC worked out at 267 ng·h/mL, the clearance worked out at 63 mL/min/kg, the half-life was 0.6 h and the Vd worked out at 1.6 L/kg.

With `COc1ccc2c(ncc3ncn(Cc4ccc(S(N)(=O)=O)c(C(F)(F)F)c4)c32)n1` [Compound 65, 4-((7-methoxy-1H-imidazo[4,5-c][1,8]naphthyridin-1-yl)methyl)-2-(trifluoromethyl)benzenesulfonamide], the IC50 against human soluble ENPP1 [1] was 3 nM. This compound registered a 50% inhibitory concentration (IC50) at human soluble ENPP1 [2] of 8.7 nM. Also, on ENPP-1, MDA-MB-231 cells, the IC50 came out at 1600 nM and the inhibition at 20 µM was 75%. Further, in “Pharmacokinetics in mice”, the exposure (AUC) stood at 185 ng·h/mL, the clearance came out at 92 mL/min/kg, the half-life was 0.72 h and the Vd worked out at 3.1 L/kg.
